Source: PubChem BioAssay (NCI)
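Protocol summary: plate cells (96-well), add compound at 5 concentrations, incubate 48 h, interpolate endpoints linearly. Definition used: TGI = concentration required for complete inhibition of growth.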

Tests used:
Experiment in all cases: NCI anticancer screen, dose series, 48 h
[1] = system: 786-0 renal
[2] = system: ACHN renal
[3] = system: PC-3 prostate
[4] = system: IGROV1 ovarian
[5] = system: CCRF-CEM leukemia
[6] = system: HCC-2998 colon
[7] = system: T-47D breast
[8] = system: NCI-H522 lung
[9] = system: MOLT-4 leukemia
[10] = system: DU-145 prostate
[11] = system: HOP-62 NSCLC
[12] = system: M14 melanoma
[13] = system: MDA-MB-231 breast
[14] = system: RPMI-8226 leukemia

SMILES	TGI [1]	TGI [2]	TGI [3]	TGI [4]	TGI [5]	TGI [6]	TGI [7]	TGI [8]	TGI [9]	TGI [10]	TGI [11]	TGI [12]	TGI [13]	TGI [14]
COc1cc(OC)c2c(=O)c(OC)c(-c3ccc4c(c3)OCO4)oc2c1	79.3 µM	> 100 µM	> 100 µM	> 100 µM	> 100 µM	> 100 µM	> 100 µM	92.3 µM	> 100 µM	> 100 µM	74.6 µM	> 100 µM	> 100 µM	
COC(=O)C1=C(C(=O)OC)c2cc(OC)ccc2C(C(=S)N(C)C)S1 (stereo not given)	> 100 µM	> 100 µM	> 100 µM	> 100 µM		> 100 µM	> 100 µM		> 100 µM	> 100 µM	> 100 µM	> 100 µM	> 100 µM	> 100 µM
N#Cc1c(-c2ccccc2)cc(Nc2cccc(C(F)(F)F)c2)n2c1nc1ccccc12	6.57 µM	11.1 µM					21.1 µM	1.37 µM	41 µM	19.7 µM	9.81 µM		9.85 µM	6.74 µM
CCOC(=O)C1(C(=O)OCC)C[C@H](C)[C@](C)(O)C1	> 100 µM	> 100 µM	> 100 µM	> 100 µM	> 100 µM			> 100 µM	> 100 µM	> 100 µM	> 100 µM	> 100 µM	> 100 µM	> 100 µM
COc1ccc(C2C3=C(Nc4ncnn42)c2ccccc2OC3c2ccccc2)cc1 (stereo not given)	> 100 µM	> 100 µM	> 100 µM	> 100 µM			59.4 µM		51 µM	> 100 µM	> 100 µM	> 100 µM	> 100 µM	
O=c1[nH]nc(Cc2ccccc2)[nH]1	> 100 µM	> 100 µM	> 100 µM	> 100 µM	> 100 µM	> 100 µM	> 100 µM	> 100 µM	> 100 µM	> 100 µM	> 100 µM	> 100 µM		> 100 µM
O=C1C=CC=C/C1=C1\N=C(c2ccccc2OCC(=O)c2ccc(Br)cc2)SS1	> 100 µM	> 100 µM	> 100 µM	71.3 µM	> 100 µM	> 100 µM	> 100 µM			> 100 µM	24 µM	> 100 µM		> 100 µM
Cc1[nH]n(C2=NCCN2)c(=O)c1Cc1ccccc1	> 100 µM	> 100 µM	> 100 µM	> 100 µM	> 100 µM		> 100 µM	> 100 µM	> 100 µM		> 100 µM	> 100 µM	> 100 µM	> 100 µM
Cn1c(=O)c2[nH]c(CCCCC(=O)O)nc2n(C)c1=O	> 100 µM	> 100 µM	> 100 µM	> 100 µM	> 100 µM	> 100 µM	> 100 µM	> 100 µM	> 100 µM	> 100 µM	> 100 µM	> 100 µM	> 100 µM	
